Results as given in publication PMC4920673, “Nitroimidazole carboxamides as antiparasitic agents targeting Giardia lamblia, Entamoeba histolytica and Trichomonas vaginalis” (European Journal of Medicinal Chemistry, 2016).
pEC50: −log10 of the molar value. Converted amounts (≈) assume the structure as drawn. Read-outs that look alike come from different tables or passages of the source.

Experiments:
[1] = test system: G. lamblia WB (MtzS); assay: ATP-bioluminescence growth/survival EC50 assay, G. lamblia WB; settings: Giardia duodenalis
Procedure: (§1) Compounds were screened for antiparasitic activity using an ATP-bioluminescence based assay for cell growth and survival, [24]. […] Viable cell numbers were determined in triplicate using the CellTiter-Glo Luminescent Cell Viability Assay.

[2] = test system: E. histolytica HM1:IMSS; assay: ATP-bioluminescence growth/survival EC50 assay, E. histolytica; format: cell-based, Entamoeba histolytica; settings: Entamoeba histolytica, MtzS
Procedure: as §1

[3] = test system: G. lamblia WB trophozoites; assay: Light microscopy of G. lamblia WB growth and survival; format: cell-based, Giardia lamblia
Procedure: The effect of compounds on G. lamblia WB growth and survival was examined by light microscopy. Briefly, stock compounds were diluted in DMSO (100%) to give 400 × final concentration of compound. […]. Assay plates were incubated for 48 h at 37 °C in the GasPak™ EZ Anaerobe Gas Generating Pouch Systems (VWR, West Chester, PA) to maintain anaerobic conditions throughout the incubation period. The assays were performed in triplicate (3 wells/treatment). […]

[4] = Plasma protein binding by ultrafiltration; format: in vitro ADME; settings: human, plasma, Plasma protein binding (% bound)
Procedure: Plasma Protein Binding (PPB) was performed using an Ultrafiltration method, [28]. […] Samples were incubated at […] for 30 min, then centrifuged at 14,000 × g for 8 min, with the clear supernatant transferred to a vial for LC/MS/MS analysis. […] The fraction of unbound compound was calculated by determining the concentration of the filtered sample and the concentration of unfiltered sample. […] LC/MS/MS parameters are detailed in the supplementary information (Supplementary Table 1).

[5] = test system: giardiasis; settings: cited from earlier work
[6] = test system: C. difficile 630 (ATCC BAA-1382); assay: Broth microdilution MIC assay, C. difficile 630; format: cell-based, Clostridium difficile; settings: Clostridioides difficile, ATCCBAA1382
Procedure, shortened: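 Compounds two-fold serially diluted against overnight anaerobic BHIS cultures of the strain, following CLSI methods modified in broth and inoculum for C. difficile. Plates incubated 24 h at 37 °C; MIC is the lowest concentration without visible growth, median reported with range.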

[7] = Resazurin cytotoxicity assay, HepG2; format: cell-based, Human; settings: human, HepG2 cells, 24 h, highest concentration 100 μM; n = 3; read-out: CC50 Hep G2
Procedure, shortened: (§2)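 Cells pre-cultured 24 h in DMEM/10% FBS at 37 °C, then exposed 24 h to compound dilution series (top 100 μM). Viability by 5 μM resazurin, 2 h, fluorescence 560/590 nm; 1% Triton X-100 as lysis control; CC50 from curve fitting.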

[8] = test system: Giardia; parameters: method as in PMID 23403423; settings: cited from earlier work
[9] = test system: G. lamblia 713M3 (MtzR); assay: ATP-bioluminescence growth/survival EC50 assay, G. lamblia 713M3; format: cell-based, Giardia lamblia; settings: Giardia duodenalis
Procedure: as §1

[10] = test system: T. vaginalis F1623; assay: ATP-bioluminescence growth/survival EC50 assay, T. vaginalis; format: cell-based, Trichomonas vaginalis; settings: Trichomonas vaginalis, MtzS
Procedure: as §1

[11] = Resazurin cytotoxicity assay, HEK293; format: cell-based, Human; settings: human, HEK293 cells, 24 h, highest concentration 100 μM; n = 3; read-out: CC50 HEK 293
Procedure, shortened: as §2

[12] = test system: C. difficile NAP1/027 (ATCC BAA-1803); assay: Broth microdilution MIC assay, C. difficile NAP1/027; format: cell-based, Clostridium difficile; settings: Clostridioides difficile, ATCCBAA1803; strain NAP1/027
Procedure, shortened: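 Strains grown anaerobically in BHIS at 37 °C overnight; compounds two-fold serially diluted (64 to 0.03 μg/mL) in pre-reduced medium under anaerobic atmosphere (5% H2, 10% CO2, 85% N2). Plates incubated 24 h at 37 °C; MIC taken as lowest concentration without visible growth, median of replicates reported.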

[13] = Metabolic stability in liver microsomes; format: in vitro ADME, human; settings: human, microsomes
Procedure: Metabolic stability studies were performed with human liver microsomes (HMMC-PL, Lot# PL050B-B, Thermo Fisher Scientific USA) with test compound (5 μM) degradation monitored by LC/MS/MS analysis. Stock solutions (2.5 mM) of the test compounds were prepared in DMSO. […] The reaction was initiated by addition of NADPH solution (cofactor) in potassium phosphate buffer (final concentration 1 mM). Aliquots (180 μL) from the reaction mixture were withdrawn (t = 0, 10, 30, 60 and 120 min) and quenched by adding ice-cold stop solution (540 μL) comprising 0.5 μM carbutamide internal standard in acetonitrile: methanol: formic acid (1: 1: 0.001). Reaction samples were incubated at 4 °C for 30 min, centrifuged at 14,000 × g for 8 min and the clear supernatant was transferred to a vial for LC/MS/MS analysis. The percentage of compound metabolised at different times was calculated as a percentage of the levels at the start of incubation (t = 0 min sample). Matrix blank was also prepared as a control. […] LC/MS/MS parameters are detailed in the supplementary information (Supplementary Table 1).

[14] = cited from earlier work

Cc1ncc([N+](=O)[O-])n1CCO [Compound 1, Metronidazole, reference compound]
pEC50 ([1]; read-out: EC50 G. lamblia WB, MtzS strain WB, minimum n = 3): 5.21
pEC50 ([1]; read-out: EC50 against G. lamblia strains, G. lamblia strains including metronidazole-resistant strains, stated together): 4.74 to 5.21
EC50 ([1]; read-out: pEC50 ± SE G. lamblia WB, MtzS strain WB (converted)): 6.17 µM
pEC50 ([2]; minimum n = 3, read-out: EC50 E. histolytica HM1:IMSS): 5.30
EC50 ([2]; read-out: pEC50 ± SE E. histolytica HM1:IMSS (converted)): 5.01 µM
Parasite cell growth by microscopy ([3]; 3 × EC50 (metronidazole 18 μM, 12a 1.5 μM), 48 h, relative to vehicle control): inhibited
Morphology of treated G. lamblia ([3]; 3 × EC50, 48 h, phase contrast): remained similar to the vehicle control
fraction unbound at 30 min, 5 μM [4]: > 0.95
Treatment failure in giardiasis cases [5]: up to 20%
MIC ([6]; 630 and NAP1/027 strains together or strain not given, read-out: MIC C. difficile): 0.5 µg/mL (≈ 2.92 µM)
MIC ([6]; strain 630, MtzS, median of n = 4, read-out: MIC C. difficile 630): 0.5 µg/mL (≈ 2.92 µM)
CC50 at 24 h [7]: > 100 µM
Effect on Giardia cells in prior study [8]: slowed the rate of oscillation of the Giardia flagella
pEC50 ([9]; read-out: EC50 G. lamblia 713M3, MtzR strain 713M3, minimum n = 3): 4.74
EC50 ([9]; read-out: pEC50 ± SE G. lamblia 713M3, MtzR strain 713M3 (converted)): 18.2 µM
pEC50 ([10]; minimum n = 3, read-out: EC50 T. vaginalis F1623): 6.10
EC50 ([10]; read-out: pEC50 ± SE T. vaginalis F1623 (converted)): 0.794 µM
CC50 at 24 h [11]: > 100 µM
MIC [12]: 0.5 µg/mL (≈ 2.92 µM)
Microsome stability (% remaining at 2 h) [13]: 100 % remaining
Plasma protein binding [14]: mostly unbound
